Consider one compound from US9060970B2, “Bridge-helix cap: target and method for inhibition of bacterial RNA polymerase” (priority 2011, dated 2015).

As a reminder, the IC50 is the concentration that inhibits the measured activity by half.

Entries after “also recorded” stand apart in the source; their conditions may differ. Starred links: 1 amine or outer side, 2 acyl side, 3 side chain; linkers in the order of their positions; H or OH if unused. Positions of bridges follow the written chain, without caps; N, C: chain ends. Non-standard residues stand in square brackets, D forms with d. Residues, ends and D or L forms follow the SMILES beside them. *: point of attachment. X2 = C[C@H](Oc1ccc([C@H](N[*:1])C(=O)[*:2])cc1)[C@@]1(/C=C/C(=O)[*:3])CO1; X1 = CC(C)[C@H](O)[C@H](C)C(=O)*; aIle = CC[C@@H](C)[C@H](N)C(=O)O; dNMeF = CN[C@H](Cc1ccccc1)C(=O)O; aThr = C[C@H](O)[C@H](N)C(=O)O

Assay [1] deals with bacterial RNA polymerase (RNAP) (Escherichia coli, UniProt P0A8T7+P0A8V2). The note with it: in vitro; reference 4; read-out: IC50, inhibition of bacterial RNA polymerase in vitro; cited from earlier work.
For assay [2], the system named is RNA synthesis in E. coli D21f2tolC. As to the kind of experiment: RNA synthesis in vivo ([14C]-uracil incorporation, macromolecular synthesis assay). In kind it is cell-based, Escherichia coli. The note with it: Sal at two times MIC; 5, 10, 15 min after addition; effect seen at earliest time point (5 min). On the procedure:
Sal Inhibits RNA Synthesis in vivo. To determine whether Sal inhibits RNAP in vivo, effects of Sal on RNA synthesis in vivo were assayed, and, as a control, effects of Sal on DNA synthesis in vivo were assayed. Sal was added to cultures of E. coli D21f2tolC growing in media containing either a radioactively labeled RNA-synthesis precursor ([^14C]-uracil) or a radioactively labeled DNA synthesis precursor ([^14C]-thymidine); aliquots were removed and mixed with trichloroacetic acid (TCA) 0, 5, 10, and 15 min thereafter to lyse cells and precipitate nucleic acids; TCA-precipitated nucleic acids were collected by vacuum filtration; and radioactivity in TCA-precipitated nucleic acids was quantified (FIG. 2A). […] The effect was specific; addition of Sal to bacterial cultures had no effect on DNA synthesis (FIG. 2B, right panel). It is concluded that Sal inhibits RNA synthesis in vivo, and it is inferred that Sal inhibits RNAP in vivo.
Measurement of Nucleic Acid Synthesis in vivo. Macromolecular synthesis assays were performed essentially as in reference 5. […] Radioactivity was quantified using a Typhoon Variable Mode Imager and ImageQuant v5 (Molecular Dynamics, Inc.).

Assay [3] deals with D21f2tolC pRL663 and D21f2tolC pRL706 derivatives. Kind of assay: Broth microdilution resistance levels of induced Sal-resistant mutants (plasmid-borne rpoC / rpoB). Type of assay: cell-based, Escherichia coli. To be noted: for resistance level (MIC/MICwild-type): induced mutant. On the procedure: Isolation of Sal-Resistant Mutants: Induced Sal-Resistant Mutants. E. coli Random mutagenesis of rpoC in plasmid pRL663 and rpoB in plasmid pRL706 was performed as in 24, mutagenenized plasmids were passaged in E. coli XL1-Blue (Stratgene, Inc.) as in 24, mutagenized plasmids were introduced by transformation into E. coli D21f2tolC as in 24, and transformants (˜1×10^4 cells) were applied to LB-agar plates containing 1 μg/ml Sal, 200 μg/ml ampicillin, and 1 mM IPTG, and plates were incubated 16-24 h at 37° C. Sal-resistant mutants were identified by the ability to form colonies on this medium and were confirmed by re-streaking on the same medium.
Quantitation of Resistance to Sal. Resistance to Sal was quantified by performing broth microdilution assays. Single colonies were inoculated into 3 ml LB broth, and incubated 3-6 h at 37° C. with shaking. Diluted aliquots (2×10^4 cells in 98 μl LB broth; concentrations determined using OD600=1 for 10^9 cells) were dispensed into wells of a 96-well plate, were supplemented with 2 μl of a 2-fold dilution series of Sal in methanol (final concentrations of […], 0.390, 0.195, 0.0975, 0.0488, 0.0244, 0.0122, and 0.00609 μg/ml) or 2 μl of a solvent blank, and were incubated 16 h at 37° C. with shaking. The minimum inhibitory concentration (MIC) was defined as the lowest tested concentration of Sal that inhibited bacterial growth by 95%.
For orientation: In broth dilution the organism is exposed to a series of concentrations in liquid medium.

The subject of a further assay is S. pyogenes. To be noted: references 1, 2; cited from earlier work.
Another assay concerns human RNAPs. To be noted: human RNAP I, RNAP II, RNAP III; reference 4; cited from earlier work.
A further assay deals with Streptococcus pneumoniae. To be noted: references 1, 2; cited from earlier work.

Chain of bacterial RNA polymerase (RNAP) (P0A8V2 whole entry): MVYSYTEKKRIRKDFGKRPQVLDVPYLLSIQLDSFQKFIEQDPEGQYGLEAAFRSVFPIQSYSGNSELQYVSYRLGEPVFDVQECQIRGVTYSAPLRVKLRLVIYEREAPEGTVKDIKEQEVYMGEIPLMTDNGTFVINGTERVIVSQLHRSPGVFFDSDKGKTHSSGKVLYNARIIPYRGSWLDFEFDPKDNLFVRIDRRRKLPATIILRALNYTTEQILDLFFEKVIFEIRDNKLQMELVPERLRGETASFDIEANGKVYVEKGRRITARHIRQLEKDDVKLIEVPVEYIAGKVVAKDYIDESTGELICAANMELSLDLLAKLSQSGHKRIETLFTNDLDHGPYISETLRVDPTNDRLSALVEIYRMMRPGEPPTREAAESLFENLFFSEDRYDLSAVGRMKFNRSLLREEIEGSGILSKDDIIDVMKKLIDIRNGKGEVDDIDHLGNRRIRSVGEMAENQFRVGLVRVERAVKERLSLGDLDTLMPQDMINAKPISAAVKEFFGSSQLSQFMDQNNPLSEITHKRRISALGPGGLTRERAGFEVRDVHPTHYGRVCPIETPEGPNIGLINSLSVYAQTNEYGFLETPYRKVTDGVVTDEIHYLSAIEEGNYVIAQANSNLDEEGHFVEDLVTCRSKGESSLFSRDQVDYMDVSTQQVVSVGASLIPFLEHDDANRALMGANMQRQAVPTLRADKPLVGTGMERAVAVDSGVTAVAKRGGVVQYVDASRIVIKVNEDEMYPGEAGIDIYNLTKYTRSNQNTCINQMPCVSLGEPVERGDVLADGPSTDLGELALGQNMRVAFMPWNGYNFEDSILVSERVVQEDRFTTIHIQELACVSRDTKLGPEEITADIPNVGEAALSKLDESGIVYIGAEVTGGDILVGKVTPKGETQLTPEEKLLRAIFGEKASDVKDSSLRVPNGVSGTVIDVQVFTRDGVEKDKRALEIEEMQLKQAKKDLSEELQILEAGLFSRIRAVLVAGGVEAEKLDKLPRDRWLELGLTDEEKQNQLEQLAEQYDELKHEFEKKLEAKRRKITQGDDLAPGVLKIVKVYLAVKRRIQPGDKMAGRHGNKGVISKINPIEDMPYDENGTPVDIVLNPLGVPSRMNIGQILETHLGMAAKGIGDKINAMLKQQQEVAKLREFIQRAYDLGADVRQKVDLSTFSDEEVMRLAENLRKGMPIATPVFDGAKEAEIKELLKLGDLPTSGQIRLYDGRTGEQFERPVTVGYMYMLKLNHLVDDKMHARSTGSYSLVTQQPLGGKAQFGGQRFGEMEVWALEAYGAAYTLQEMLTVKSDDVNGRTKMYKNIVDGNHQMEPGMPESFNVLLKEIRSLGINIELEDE
Chain of bacterial RNA polymerase (RNAP) (P0A8T7 whole entry): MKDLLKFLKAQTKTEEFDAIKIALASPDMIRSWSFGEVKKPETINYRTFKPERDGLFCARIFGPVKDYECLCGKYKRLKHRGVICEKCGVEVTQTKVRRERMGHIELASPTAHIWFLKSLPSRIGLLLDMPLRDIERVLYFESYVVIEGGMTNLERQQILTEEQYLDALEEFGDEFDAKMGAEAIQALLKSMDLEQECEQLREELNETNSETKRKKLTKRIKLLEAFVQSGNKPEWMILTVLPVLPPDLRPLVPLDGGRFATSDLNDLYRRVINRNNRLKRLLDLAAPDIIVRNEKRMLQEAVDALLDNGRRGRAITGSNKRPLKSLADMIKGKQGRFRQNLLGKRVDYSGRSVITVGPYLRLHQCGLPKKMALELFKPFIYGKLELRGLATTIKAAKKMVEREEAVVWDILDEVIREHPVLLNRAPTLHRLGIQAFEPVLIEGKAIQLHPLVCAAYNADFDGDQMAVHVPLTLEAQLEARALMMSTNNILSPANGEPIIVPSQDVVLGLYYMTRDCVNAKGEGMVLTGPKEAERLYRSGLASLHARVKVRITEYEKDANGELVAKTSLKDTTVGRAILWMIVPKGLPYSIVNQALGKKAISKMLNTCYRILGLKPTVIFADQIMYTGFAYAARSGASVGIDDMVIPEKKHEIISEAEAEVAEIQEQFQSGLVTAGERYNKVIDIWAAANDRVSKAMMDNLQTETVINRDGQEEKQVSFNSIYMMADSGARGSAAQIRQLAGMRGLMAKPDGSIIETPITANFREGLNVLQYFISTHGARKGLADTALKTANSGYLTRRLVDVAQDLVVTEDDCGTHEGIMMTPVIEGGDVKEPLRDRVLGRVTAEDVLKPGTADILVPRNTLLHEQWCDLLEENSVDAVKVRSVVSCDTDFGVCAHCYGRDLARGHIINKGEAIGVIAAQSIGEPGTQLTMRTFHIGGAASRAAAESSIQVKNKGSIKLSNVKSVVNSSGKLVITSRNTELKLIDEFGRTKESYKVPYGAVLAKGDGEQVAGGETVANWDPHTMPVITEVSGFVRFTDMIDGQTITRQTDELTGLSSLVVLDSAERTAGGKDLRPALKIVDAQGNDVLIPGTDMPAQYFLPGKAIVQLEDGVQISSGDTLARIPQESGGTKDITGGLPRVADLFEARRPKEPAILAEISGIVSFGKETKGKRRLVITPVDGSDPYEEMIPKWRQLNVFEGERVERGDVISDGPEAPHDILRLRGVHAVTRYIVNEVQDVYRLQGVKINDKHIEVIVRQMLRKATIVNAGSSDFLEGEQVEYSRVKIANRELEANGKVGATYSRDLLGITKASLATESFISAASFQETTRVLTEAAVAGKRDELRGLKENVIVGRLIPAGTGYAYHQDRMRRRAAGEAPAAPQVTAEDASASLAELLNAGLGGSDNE
Chain of bacterial RNA polymerase (RNAP) (P0A7Z4 whole entry, further chain): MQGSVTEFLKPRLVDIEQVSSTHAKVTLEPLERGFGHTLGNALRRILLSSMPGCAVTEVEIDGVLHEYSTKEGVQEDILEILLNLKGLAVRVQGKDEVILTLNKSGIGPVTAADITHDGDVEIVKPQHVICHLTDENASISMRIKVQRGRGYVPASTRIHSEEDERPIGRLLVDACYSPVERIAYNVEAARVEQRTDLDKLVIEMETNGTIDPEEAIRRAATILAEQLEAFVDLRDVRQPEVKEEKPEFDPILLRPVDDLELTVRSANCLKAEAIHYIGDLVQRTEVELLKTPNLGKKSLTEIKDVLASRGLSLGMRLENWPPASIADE

As for `CC[C@@H](C)[C@@H]1NC(=O)[C@H](NC(=O)[C@@H](C)[C@@H](O)C(C)C)[C@H](C)OC(=O)[C@H]2COC(=O)CNC(=O)/C=C/[C@@]3(CO3)[C@H](C)Oc3ccc(cc3)[C@H](NC1=O)C(=O)N(C)[C@H](Cc1ccccc1)C(=O)N[C@@H]([C@H](C)O)C(=O)N2` [Sal, salinamide A] (X1-[dT][aIle][X2][dNMeF][aThr][dS]; ester 1-C; linker 3-6 via G), the IC50 in assay [1] was 500 nM. Also, in assay [2], the “effect on RNA synthesis in vivo” value was “decreased immediately; also recorded: essentially stopped”. In assay [3] (D21f2tolC pRL663 and D21f2tolC pRL706 derivatives, wild-type plasmid genes), the “MIC with wild-type rpoC and wild-type rpoB” value was “^aAssayed as D21f2tolC pRL663 and D21f2tolC pRL706 derivatives; MIC with wild-type rpoC and wild-type rpoB was 0.098 μg/ml”. Moreover, the “resistance level (MIC/MICwild-type)” value in assay [3] (rpoB (RNAP β subunit) 561 Ile→Ser) came to 2; in assay [3] (rpoB (RNAP β subunit) 665 Ala→Glu), 8; in assay [3] (rpoB (RNAP β subunit) 680 Leu→Met) it was 4; in assay [3] (rpoC (RNAP β′ subunit) 758 Pro→Thr), 4; in assay [3] (rpoC (RNAP β′ subunit) 780 Arg→Cys) it was 8; in assay [3] (rpoC (RNAP β′ subunit) 782 Gly→Cys) it was 8. The antibacterial activity entry in the assay with S. pyogenes and in the assay on Streptococcus pneumoniae was “exhibits antibacterial activity” throughout. In addition, the “inhibition of human RNAPs” value in the assay on human RNAPs is listed as “does not inhibit”.
